The record followed here is patent publication US8895761B2, “4-phenylpyrane-3,5-diones, 4-phenylthiopyrane-3,5-diones and 2-phenylcyclohexane-1,3,5-triones as herbicides” (Syngenta Limited, priority 2007, dated 2014).

In general, pest or weed control refers to how far the test organism was held down.

SMILES strings stand for the structures.

Format in all cases: in vivo
Experiment [1] concerns Lolium perenne (LOLPE). Put plainly: Pre-emergence herbicidal glasshouse test, Lolium perenne. As to conditions: 312 h, rate 250 g/ha, evaluated after 13 days, scale 100 = total damage to plant, 0 = no damage. On the procedure: (§1) Seeds of a variety of test species were sown in standard soil in pots. After cultivation for one day (pre-emergence) or after 8 days cultivation (post-emergence) under controlled conditions in a glasshouse (at 24/16° C., day/night; 14 hours light; 65% humidity), the plants were sprayed with an aqueous spray solution derived from the formulation of the technical active ingredient in acetone/water (50:50) solution containing 0.5% Tween 20 (polyoxyethelyene sorbitan monolaurate, CAS RN 9005-64-5). The test plants were then grown in a glasshouse under controlled conditions in a glasshouse (at 24/16° C., day/night; 14 hours light; 65% humidity) and watered twice daily. After 13 days for pre and post-emergence, the test was evaluated ([…] to plant; 0=no damage to plant).
(§2) Setaria faberi (SETFA), Lolium perenne (LOLPE), Alopecurus myosuroides (ALOMY), Echinochloa crus-galli (ECHCG) and Avena fatua (AVEFA).

In experiment [2] the test system is Alopecurus myosuroides (ALOMY). Put plainly: Pre-emergence herbicidal glasshouse test, Alopecurus myosuroides. The settings on record: Alopecurus myosuroides, 312 h, rate 250 g/ha, evaluated after 13 days, scale 100 = total damage to plant, 0 = no damage. On the procedure: as §1, §2
Experiment [3] has as its system Echinochloa crus-galli (ECHCG). Put plainly: Pre-emergence herbicidal glasshouse test, Echinochloa crus-galli. The settings on record: Echinochloa crus-galli, 312 h, rate 250 g/ha, evaluated after 13 days, scale 100 = total damage to plant, 0 = no damage. Here is the method: as §1, §2
Experiment [4] concerns Avena fatua (AVEFA). Put plainly: Pre-emergence herbicidal glasshouse test, Avena fatua. The settings on record: Avena fatua, 312 h, rate 250 g/ha, evaluated after 13 days, scale 100 = total damage to plant, 0 = no damage. Here is the method: as §1, §2
Experiment [5] deals with Lolium perenne (LOLPE). Put plainly: Post-emergence herbicidal glasshouse test, Lolium perenne. As to conditions: 312 h, rate 250 g/ha, evaluated after 13 days, scale 100 = total damage to plant, 0 = no damage. Here is the method:
as §1, §2

Experiment [6] deals with Alopecurus myosuroides (ALOMY). Put plainly: Post-emergence herbicidal glasshouse test, Alopecurus myosuroides. The settings on record: Alopecurus myosuroides, 312 h, rate 250 g/ha, evaluated after 13 days, scale 100 = total damage to plant, 0 = no damage. Here is the method:
as §1, §2

Experiment [7] deals with Echinochloa crus-galli (ECHCG). Put plainly: Post-emergence herbicidal glasshouse test, Echinochloa crus-galli. As to conditions: Echinochloa crus-galli, 312 h, rate 250 g/ha, evaluated after 13 days, scale 100 = total damage to plant, 0 = no damage. On the procedure: as §1, §2
In experiment [8] the test system is Avena fatua (AVEFA). Put plainly: Post-emergence herbicidal glasshouse test, Avena fatua. As to conditions: Avena fatua, 312 h, rate 250 g/ha, evaluated after 13 days, scale 100 = total damage to plant, 0 = no damage. Here is the method: as §1, §2

On to `CCc1cc(-c2ccc(F)c(F)c2)ccc1C1=C(O)C(C)(CC)OC(C)(C)C1=O` (stereo not shown) [Compound A-119], for which the pest or weed control at 250 g/ha in the experiment on Lolium perenne (LOLPE) [1] is 60%; in experiment [2], 40%; in experiment [3], 30%; with Avena fatua (AVEFA) [4], 10%; with Lolium perenne (LOLPE) [5], 90%; in experiment [6], 100%. Moreover, the pest or weed control at 250 g/ha came out at 100% in experiment [7] and 90% with Avena fatua (AVEFA) [8].
Regarding `CCc1cc(-c2ccc(F)cc2)ccc1C1=C(OC(C)=O)C(C)(C)OC(C)(C)C1=O` [Compound D-3], the pest or weed control at 250 g/ha was 100% with Lolium perenne (LOLPE) [1]; 90% in experiment [2]; 100% in experiment [3]; 70% in the experiment with Avena fatua (AVEFA) [4]; 100% in the experiment on Lolium perenne (LOLPE) [5]; 100% in experiment [6]. The pest or weed control at 250 g/ha in experiment [7] came out at 100%; in the experiment with Avena fatua (AVEFA) [8], 80%.
Regarding `CCc1cc(-c2ccc(F)c(OC)c2)ccc1C1=C(O)C(C)(C)S(=O)(=O)C(C)(C)C1=O` [Compound B-16], the pest or weed control at 250 g/ha in the experiment with Lolium perenne (LOLPE) [1] was determined as 40%; in experiment [2], 20%; in experiment [3] it was 40%; in the experiment on Avena fatua (AVEFA) [4], 30%; in the experiment with Lolium perenne (LOLPE) [5], 60%; in experiment [6], 50%. The pest or weed control at 250 g/ha (in experiment [7]; in the experiment on Avena fatua (AVEFA) [8]) was 80% throughout.
With `CCc1cc(-c2ccc(F)c(OC)c2)ccc1C1=C(O)C(C)(C)OC(C)(C)C1=O` [Compound A-78], the pest or weed control at 250 g/ha with Lolium perenne (LOLPE) [1] was found to be 80%; in experiment [2], 20%; in experiment [3], 0%; in the experiment on Avena fatua (AVEFA) [4], 30%; in the experiment on Lolium perenne (LOLPE) [5], 100%; in experiment [6] it was 80%. The pest or weed control at 250 g/ha in experiment [7] was 100%; in the experiment with Avena fatua (AVEFA) [8], 90%.
Regarding `CCc1cc(-c2ccc(F)c(F)c2)ccc1C1=C(O)C(C)(C)[S+]([O-])C(C)(C)C1=O` (stereo not shown) [Compound B-11], the pest or weed control at 250 g/ha stood at 40% with Lolium perenne (LOLPE) [1]; 50% in experiment [2]; 0% in experiment [3]; 20% in the experiment on Avena fatua (AVEFA) [4]; 60% in the experiment with Lolium perenne (LOLPE) [5]; 60% in experiment [6]. Also, the pest or weed control at 250 g/ha in experiment [7] amounted to 40%; in the experiment with Avena fatua (AVEFA) [8], 70%.
As for `CCc1cc(-c2cc(F)c(F)c(F)c2)ccc1C1=C(O)C(C)(C)C(=O)C(C)(C)C1=O` [Compound C-5], the pest or weed control at 250 g/ha with Lolium perenne (LOLPE) [1] amounted to 40%; in experiment [2], 30%; in experiment [3], 0%; with Avena fatua (AVEFA) [4] it was 20%; in the experiment with Lolium perenne (LOLPE) [5], 70%; in experiment [6], 100%. In addition, the pest or weed control at 250 g/ha in experiment [7] is 100%; in the experiment on Avena fatua (AVEFA) [8] it was 90%.
As for `CCc1cc(-c2ccc(Cl)s2)ccc1C1=C(O)C(C)(C)OC(C)(C)C1=O` [Compound A-41], the pest or weed control at 250 g/ha in the experiment on Lolium perenne (LOLPE) [1] was 20%; in experiment [2], 0%; in experiment [3], 0%; in the experiment with Avena fatua (AVEFA) [4], 30%; in the experiment with Lolium perenne (LOLPE) [5], 60%; in experiment [6], 50%. The pest or weed control at 250 g/ha in experiment [7] worked out at 70%; with Avena fatua (AVEFA) [8], 0%.
As to `CCc1cc(-c2ccc(F)c(F)c2F)ccc1C1=C(O)C(C)(COC)OC(C)(C)C1=O` (stereo not shown) [Compound A-117], the pest or weed control at 250 g/ha with Lolium perenne (LOLPE) [1] was 60%; in experiment [2] it was 70%; in experiment [3] it was 90%; in the experiment on Avena fatua (AVEFA) [4], 40%; in the experiment on Lolium perenne (LOLPE) [5], 80%; in experiment [6] it was 90%. The pest or weed control at 250 g/ha in experiment [7] amounted to 100%; in the experiment with Avena fatua (AVEFA) [8] it was 80%.
